Results as given in US20230072164A1, “GRANULAR PHARMACEUTICAL PRODUCT FOR ORAL ADMINISTRATION FROM A PRE-FILLED STRAW AND METHOD OF MANUFACTURING SUCH PHARMACEUTICAL PRODUCT” (ALTERNO LABS D.O.O., priority 2020, published 2023).

Legend:
Type in all cases: physicochemical
[1] = Particle size distribution by laser diffraction (dry powder)
Method: The particle size distribution of powder samples (crystals, coated crystals) was determined using a laser diffraction analyzer (Malvern Mastersizer 3000, Worcestershire, United Kingdom) connected to Aero S dry powder dispersion, as this technique enables measurement in the range between 100 nm and 3500 μm. Approximately 2-3 g of sample was put into the dosing device, air pressure was set to 1.2 bar for coated crystals and granulates (for micronized paracetamol the dispersing air pressure was set to 3.0 bar). Measurement was performed automatically when obscuration was in a range between 0.5 and 5%. Background measurements were performed for 10 seconds and the stabilization time delay before initialization (time before measurements after the desired obscuration was achieved) was set to 3 seconds and measurement duration to 5 seconds respectively. The nonspherical measurement mode approximation was used to determine the particle size distribution for paracetamol crystals and coated crystals. A refraction index and absorption rate for paracetamol were set to 1.62 and 0.01 respectively. The distribution results were expressed as three values: d10, where 10% of the particle population lies below the measured value; d50, the median value; and d90, where 90 percent of the population lies below the measured value.

[2] = Sessile drop water contact angle on compressed plates; set-up: key to Observed sweling: — = not measurable; * = observed; ** = fast swelling; *** = very fast swelling; settings: for Δ θ: decrease of water contact angle from 0 s to 30 s; for Observed sweling: during contact angle measurement; for θ at time 0 s (st. deviation) / θ at time 30 s (st. deviation): sessile drop water contact angle, 3 μL drop, flat surface plate, room temperature
Method: The water contact angle on compressed powders of the different polymers used as the first coating layer, trehalose and erythritol was measured with a Kruss sessile drop contact angle meter DSA100 (Krυss, Germany) at room temperature. 200 mg of powder was compressed with a Specac hydraulic press (Kent, England) with a 10 s dwell time at a pressure of 4×10^8 Pa. A circular punch and dye assembly (12 mm diameter) with polished stainless steel round punches were used for compression. At least six repetitions on three different plates of the same polymer or other two excipients were performed to ensure the reproducibility of results. Measurements were performed with 3 μL water drop and video recording (software DSA 1.90.0.14 Krυss, Germany) that enabled the determination of contact angles at time zero and 30 seconds later. Contact angles at these two-time points together with visual observation of surface swelling were taken as relevant parameters for polymers differentiation. In the same manner, trehalose and erythritol were also analyzed.

[3] = Dissolution of coated paracetamol crystals in water (taste masking, non-compendial); settings: 100 mL purified water, room temperature
Method: A non-compendial test was performed in order to simulate the taste masking efficinecy of polymer coat during drug sipping. Pure paracetamol crystals were used as reference material. 100 mL of purified water was transferred in an Erlenmeyer flask on a magnetic stirrer at room temperature. The test formulation containing 250 mg of paracetamol was suspended in the Erlenmeyer flask and aliquotes of 5.0 mL were withdrawn at intervals of 0.5, 1.0, 1.5, 2.0, 2.5, 3.0 and 5.0 minutes (±15% tolerance limit for time) and replaced with an equal volume of purified water (freshwater, maintained at the same temperature) at each sampling point. Samples were immediately filtered using 0.45 μm RC syringe filters.
Samples were appropriately diluted and analyzed by HPLC. The amount of drug release was calculated from a standard calibration curve, which was prepared on the day of the experiment.

[4] = Example 3, coated crystals 250-500 μm, milled erythritol, final granules from high shear mixer
[5] = laser diffraction, Comparative Example 1 and Example 2

d10 [1, 4] [μm]	d50 [1, 4] [μm]	d90 [1, 4] [μm]	Δ θ [2] [°]	Observed sweling [2]	θ at time 0 s (st. deviation) [2]	θ at time 30 s (st. deviation) [2]	d10 [1, 5] [μm]	d50 [1, 5] [μm]	d90 [1, 5] [μm]	Structure (SMILES)	dissolution rate in water [3]
7	46	108	0	—	0 °	0 °				OC[C@@H](O)[C@@H](O)CO [Erythritol, erythritol]	
							208	458	772	CC(=O)Nc1ccc(O)cc1 [Paracetamol—large crystals, uncoated, paracetamol]	dissoves much faster than from coated particles
			4.8	—	13.4 (1.9) °	8.6 (2.0) °				OC[C@H]1O[C@H](O[C@H]2O[C@H](CO)[C@@H](O)[C@H](O)[C@H]2O)[C@H](O)[C@@H](O)[C@@H]1O [Trehalose, trehalose]	
							5	32	152	CC(=O)Nc1ccc(O)cc1 [Paracetamol—milled, uncoated, paracetamol]	
